{"source": "patent EP1228058B1", "about": "“BENZOPYRANYL GUANIDINE DERIVATIVES, PROCESS FOR PREPARATION THEREOF, AND PHARMACEUTICAL COMPOSITIONS CONTAINING THEM” (Dongbu Hannong Chemical Co., Ltd., priority 1999, dated 2001)", "key": {"[1]": {"system": "angiogenesis induced by Angiotensin II in Sprague-Dawley rats", "assay": "Suppression of Angiotensin II induced angiogenesis in implanted sponge (99mTc-DTPA clearance)", "assay_type": "in vivo", "conditions": "AII (100nmol) + test drug, 7 days after injection"}, "A7r5": {"system": "A7r5", "assay": "Inhibition of intracellular ROS induced by H2O2 (H2DCFDA) in A7r5", "assay_type": "cell-based", "conditions": "Rattus norvegicus", "method": "(§1) Measurement of intracellular ROS (Reactive Oxygen Species) was determined using H2DCFDA (2',7'-dichlorodihydrofluorescein diacetate, Molecular Probes, Eugene, OR, USA). H2DCFDA is a non-polar compound that readily diffused into cells, where it is hydrolyzed by intracellular esterase to polar derivative H2DCF (2',7'-dichlorodihydrofluorescein) which can not cross the cell membrane, and thereby trapped within the cell. H2DCF is low-fluorescent, but converted to high-fluorescent DCF (2',7'-dichlorofluorescein) by intracellular ROS. Therefore, the intracellular ROS formation can be determined from the amount of converted DCF. HUVEC (Human umbilical Vascular Endothelial Cells) or A7r5 (Rat thoracic aorta smooth muscle cells) were used. HUVEC were cultured in Kaighn's F12K medium supplemented with 10% heat-inactivated FBS, 0.1 mg/ml heparin sodium, 0.03-0.05 mg/ml ECGS (Endothelial cell growth supplement) and 1% antibiotics, and A7r5 were cultured in DMEM supplemented with 10% heat inactivated FBS and 1% antibiotics. To measure the intracellular ROS, HUVEC or A7r5 were preincubated for 30 min in the presence of test compounds (10^-7-10^-5 M). Thereafter, cells were stimulated with H2O2 (10^-6 and 10^-5 M for 20 min), and then incubated in the dark for 2 hr at 37 °C in 50 mM phosphate buffer (pH 7.4) containing 5 uM H2DCFDA. The quantity of DCF fluorescence (485 nm excitation, 530 nm emission) was measured using Fluorescence plate reader (FL600, Biotek Instruments)."}, "HUVEC": {"system": "HUVEC", "assay": "Inhibition of intracellular ROS induced by H2O2 (H2DCFDA) in HUVEC", "assay_type": "cell-based, Human", "conditions": "Homo sapiens; for inhibition at 10 µM: Conc. 10^-5 M; for inhibition at 1 µM: Conc. 10^-6 M; for inhibition at 0.1 µM: Conc. 10^-7 M", "method": "as §1"}, "ischemic retinal cells": {"system": "ischemic retinal cells", "assay": "Protection of ischemic retinal cells (raised intraocular pressure)", "assay_type": "in vivo, rats", "conditions": "vitreous injection 30 min before ischemia", "method": "Test compounds were dissolved in DMSO to prepare stock solution (100 mM), which was diluted with physiological saline to the concentration of 100, 50 and 30 uM. Test compounds were administered by vitreous injection before 30 min of ischemia.\nAdult rats were anaesthetized with ip (intra peritoneum) injection of chloral hydrate (400 mg/Kg), then the right eyes were treated with 1% tropicamide to dilate the pupils. The intraocular pressure (IOP) was raised to 160-180 mmHg, higher than normal blood pressure (140 mmHg), by cannulation of the anterior chamber connected to hydrostatic pressure device. Interruption of blood flow was confirmed ophthalmoscopically, the elevated IOP was maintained for 30 min. After 30 min of ischemia, both eyes were enucleated, and the retina was separated, of which cellular damage was observed. Number of cells in ganglion cell layer (250 x 25 um) and innernuclear layer (150 x 25 um) were counted, then calculated as a % of living cells compared to those of non-operated left eyes as a normal control."}, "diabetic rats": {"system": "diabetic rats", "assay": "Nociceptive test (hot plate test) in diabetic rats", "assay_type": "in vivo", "conditions": "50 °C hot plate", "method": "Effects on nociceptive responses of test compounds in rats were examined using hot plate. The same methods were applied for the induction of diabetes and treatment of test compound in rats. Rats were placed onto 50 °C hot plate, then latencies of nociceptive action such as licking were determined. The recovery (%) of nociceptive responses in diabetic rats was calculated according to the following mathematical […]. [Mathematical formula 5] Recovery(%) =(Response in treated group - Response in diabetic control)/(Response in normal control-Response in diabetic control)x100 [formula]"}, "newborn rats": {"system": "newborn rats", "assay": "Protection against hypoxic brain injury in newborn rats (proton MRS)", "assay_type": "in vivo", "conditions": "50mg/Kg intraperitoneally 1 hr before hypoxia; proton MRS 1 day after injury", "description": "Focal, hypoxic brain injury model in newborn rats are being most frequently used to study infant asphyxia, because whose maturity of brain is similar to that of human infant, and it is easy to get enough number of animals required for the determination of effects. It was reported that the lipid peak was increased in MRS (magnetic resonamce spectroscopy) by ischemic neuronal cell injury due to the destruction of cell membrane including blood-brain barrier [A. Bizzi et. al., Magnetic Resonance Imagin 14 581-592 (1996)], and also the concentration of lipid and apotosis are closely correlated to apotosis [Van der A. Toorn et al., Magnetic Resonamce in Medicine, 36 , 914-922 (1996)]. N-Acetylaspartae (NAA) and creatine (Cr) are markers of neuronal cells. Then it was confirmed that the value of lipid/NAA (N-acetylaspartae) and lipid/Cr (creatine) are correlated with the morphological change and severity of apoptosis on hypoxic brain damage.\nNew born rats (within 7 days, 10-15 g) were placed in hypoxic chamber for 2 hr to induce hypoxia, and test compounds were intraperitoneally injected before 1 hr of hypoxia. Proton MRS was obtained at 1 day after brain injury, then the value of lipid/NAA and lipid/Cr were determined."}, "[2]": {"conditions": "read-out: Inhibition (%) H2O2 (10^-5M)"}, "[3]": {"conditions": "read-out: Inhibition (%) H2O2 (10^-6M)"}}, "note": "Read-outs that look alike come from different tables or passages of the source."}
{"smiles": "COC(OC)[C@@]1(C)Oc2ccc([N+](=O)[O-])cc2[C@H](NC(=NC#N)NCc2ccccc2)[C@H]1O", "note": "[Example 24, (2S, 3R, 4S)-N''-cyano-N-(6-nitro-3,4-dihydro-3-hydroxy-2-methyl-2-dimethoxymethyl-2H-benzopyran-4-yl)-N'-benzylguanidine]", "values": [{"measurement": "Clearance of ^99mTC (%)", "setting": "[1]; Dose 0.1 mg/kg (p.o)", "value": 26.90, "unit": "%"}, {"measurement": "Clearance of ^99mTC (%)", "setting": "[1]; Dose 0.3 mg/kg (p.o)", "value": 18.22, "unit": "%"}, {"measurement": "Clearance of ^99mTC (%)", "setting": "[1]; Dose 1.0 mg/kg (p.o)", "value": 3.38, "unit": "%"}, {"measurement": "inhibition at 10 µM", "setting": "A7r5; A7r5, Conc. 10^-5 M, read-out: Inhibition (%) H2O2 (10^-6M)", "value": 185, "unit": "%"}, {"measurement": "inhibition at 1 µM", "setting": "A7r5; A7r5, Conc. 10^-6 M", "value": 111, "unit": "%"}, {"measurement": "inhibition at 0.1 µM", "setting": "A7r5; A7r5, Conc. 10^-7 M, read-out: Inhibition (%) H2O2 (10^-6M)", "value": 72, "unit": "%"}]}
{"smiles": "COC(OC)[C@@]1(C)Oc2ccc(N)cc2[C@@H](NC(=NC#N)NCc2ccccc2)[C@@H]1O", "note": "[Example 40, (2S, 3S, 4R)-N''-cyano-N-(6 - amino-3,4-dihydro-3-hydroxy-2-methyl-2-dimethoxymethyl-2H-benzopyran-4-yl)-N'-benzylguanidine]", "values": [{"measurement": "inhibition at 10 µM", "setting": "HUVEC; [2]", "value": 54.9, "unit": "%"}, {"measurement": "inhibition at 10 µM", "setting": "HUVEC; [3]", "value": 63.1, "unit": "%"}, {"measurement": "inhibition at 1 µM", "setting": "HUVEC; [2]", "value": 25.8, "unit": "%"}, {"measurement": "inhibition at 1 µM", "setting": "HUVEC; [3]", "value": 46.1, "unit": "%"}, {"measurement": "inhibition at 0.1 µM", "setting": "HUVEC; [2]", "value": 12, "unit": "%"}, {"measurement": "inhibition at 0.1 µM", "setting": "HUVEC; [3]", "value": 17.6, "unit": "%"}, {"measurement": "Living cell (%) Ganglion Cell layer", "setting": "ischemic retinal cells; 30 uM", "value": 40.7, "unit": "%"}, {"measurement": "Living cell (%) Innernuclear layer", "setting": "ischemic retinal cells; 30 uM", "value": 54.8, "unit": "%"}, {"measurement": "Living cell (%) Ganglion Cell layer", "setting": "ischemic retinal cells; 50 uM", "value": 60.2, "unit": "%"}, {"measurement": "Living cell (%) Innernuclear layer", "setting": "ischemic retinal cells; 50 uM", "value": 69.8, "unit": "%"}, {"measurement": "Living cell (%) Ganglion Cell layer", "setting": "ischemic retinal cells; 100 uM", "value": 77.9, "unit": "%"}, {"measurement": "Living cell (%) Innernuclear layer", "setting": "ischemic retinal cells; 100 uM", "value": 82.6, "unit": "%"}, {"measurement": "Nociceptive response", "setting": "diabetic rats; latency of licking", "value": 4.791, "unit": "s"}, {"measurement": "Recovery (%)", "setting": "diabetic rats; nociceptive responses", "value": 106.5, "unit": "%"}, {"measurement": "Lipid/Cr", "setting": "newborn rats", "value": 2.33}, {"measurement": "Lipid/NAA", "setting": "newborn rats", "value": 2.51}]}
